In patent publication US11753411B2, “Substituted pyrazolo[1,5-a]pyrimidines as TYK2 pseudokinase ligands” (Ventyx Biosciences, Inc., priority 2019, dated 2023):

Tested on: IFN-a/Jak1 Tyk2
Experiment: Co-stimulation assay in lysed whole blood: IFNa (JAK1/TYK2) stimulated STAT1 phosphorylation
Type: cell-based
Conditions: 100 ng/mL IFNa (with 10 ng/mL GM-CSF), pSTAT by flow cytometry
Method: Example 12: Co-Stimulation Assay in Lysed Whole Blood; JAK2: GM-CSF Stimulated STAT5 Phosphorylation and JAK1/TYK2 Stimulated STAT1 Phosphorylation Assay
Human Blood Lysis Using Abcam's RBC Lysis Buffer
Dilute RBC lysis buffer to 1× in distilled water. Add 2 mL blood to 38 mL of 1×RBC-lysis buffer. Incubate for 15 mins at RT, in dark. Spin at 300 g, 5 mins, to collect the pellet. Re-lyse if necessary. Re-suspend pellet in 5 mL of cRPMI.
Compound and Cytokine Treatment
Aliquot 80 μL of lysed human blood in to wells of 96 deep-well plate. Add 10 μl of (10× conc.) of different concentrations of compounds to all wells except controls (unstained and unstimulated) and mix it with the help of 100 uL multichannel. Add 10 uL of RPMI media in controls. For dilution of compounds and dilution range please refer Appendix. Incubate on water bath or CO2 incubator for 1 hour at 37° C. Add 10 μl of (10× conc.) of cytokine mix (GM-CSF and IFNa) (final conc.10 ng/mL of GM-CSF and 100 ng/mL of IFNa) to each well except unstimulated and unstained controls and incubate further for 20 minutes on water bath at 37° C.
Add 900 μL of prewarmed 1× Fix/Lyse solution (Appendix) and mix it properly using 1000 μl multichannel, incubate further on water bath at 37° C. for 10 minutes (which includes time of addition). Centrifuge at 800×g for 5 minutes at 40° C.; remove 900 uL of supernatant and add 900 μL of 1×PBS. Centrifuge at 800×g for 5 minutes at 40° C., remove 900 μL of supernatant. Wash one more time with 900 μL of PBS (optional) and resuspend pellets in 100 uL of PBS.
Disrupt the pellet by gentle tapping and resuspend in 1000 μL of BD Phosflow Perm Buffer III and incubate plate on ice for 30 minutes. Centrifuge plate at 800×g for 5 minutes at 40° C. Wash two more times with 1000 μL of BD Pharmingen Stain Buffer.
Disrupt the pellet by gentle tapping. Resuspend pellets in 100 uL of Stain Buffer and add 5 μL of pSTAT5_AF488 Ab and 5 uL of pSTAT_PE in all wells except unstained control and mix properly using 200 μl multichannel, incubate overnight at […]. Add 900 μL of wash buffer and centrifuge at 1800 rpm for 3 minutes at 40° C. Wash one more time with 1000 μL of BD Pharmingen Stain Buffer. Finally resuspend the pellet in 300 uL of BD Pharmingen Stain Buffer. Transfer the cells to 96-well v-bottom plate and acquire the cells in Beckman Coulter CytExpert. Acquiring cells in Flow Cytometer: Keep the threshold value to 250 and cell concentration should not exceed 100-500 cells/μL. Acquire at least 5,000-10,000 cells.
RPMI 1640 Complete Medium: RPMI 1640 media+10% FBS.
Cytokine dilution: 1) GM-CSF Stock at 100 ug/mL. Prepare an intermediate dilution of 1 ug/mL by adding 2 uL of stock into 198 uL of cRPMI. Further dilute to 100 ng/mL by adding 100 uL of the intermediate stock to 900 uL of cRPMI. 2) IFNa Stock at 200 ug/mL. Dilute IFNa stock 1:200 by adding 5 uL of stock into the 1000 uL of 100 ng/mL GM-CSF working stock as above to give a combined working stock of 1000 ng/mL of IFNa and 100 ng/mL GM-CSF (10×). Keep it on ice until used.
Lyse/Fix buffer preparation: Dilute 5× Lyse/Fix buffer to 1× using MQ water and keep at 37° C. until used.
BD Phosflow perm buffer III: Keep on ice/fridge.

| IC50 (Homo sapiens, 20 min) [nM] | IC50 (lysed human whole blood, 20 minutes) [nM] | SMILES |
| --- | --- | --- |
| < 1000 | – | CNc1cc(Nc2cc(F)cc3c2OCCO3)nc2c(NC(=O)N[C@@H]3C[C@@H]3C#N)cnn12 [Compound 51, 1-((1R,2S)-2-cyanocyclopropyl)-3-(5-((7-fluoro-2,3-dihydrobenzo[b][1,4]dioxin-5-yl)amino)-7-(methylamino)pyrazolo[1,5-a]pyrimidin-3-yl)urea] |
| < 1000 | – | CNc1cc(Nc2cccc3c2OCCO3)nc2c(NC(=O)N[C@@H](C)C#N)cnn12 [Compound 121, (S)-1-(1-cyanoethyl)-3-(5-((2,3-dihydrobenzo[b][1,4]dioxin-5-yl)amino)-7-(methylamino)pyrazolo[1,5-a]pyrimidin-3-yl)urea] |
| < 1000 | – | CNc1cc(Nc2cc(F)cc3c2OCCO3)nc2c(NC(=O)N[C@H]3C[C@H]3F)cnn12 [Compound 42, 1-(5-((7-fluoro-2,3-dihydrobenzo[b][1,4]dioxin-5-yl)amino)-7-(methylamino)pyrazolo[1,5-a]pyrimidin-3-yl)-3-((1S,2R)-2-fluorocyclopropyl)urea] |
| 1000 to 10000 | – | CNC(=O)Nc1cnn2c(NC)cc(Nc3cccc(OC)c3OC)nc12 [Compound 97, 1-(5-((2,3-dimethoxyphenyl)amino)-7-(methylamino)pyrazolo[1,5-a]pyrimidin-3-yl)-3-methylurea] |
| 1000 to 10000 | – | CNc1cc(Nc2cccc3c2OCCO3)nc2c(NC(=O)NC3CCC3C#N)cnn12 (centres unmarked) [Compound 43, 1-(2-cyanocyclobutyl)-3-(5-((2,3-dihydrobenzo[b][1,4]dioxin-5-yl)amino)-7-(methylamino)pyrazolo[1,5-a]pyrimidin-3-yl)urea] |
| < 1000 | – | CNc1cc(Nc2cc(C)ccc2OC)nc2c(NC(=O)NCC#N)cnn12 [Compound 129, 1-(cyanomethyl)-3-(5-((2-methoxy-5-methylphenyl)amino)-7-(methylamino)pyrazolo[1,5-a]pyrimidin-3-yl)urea] |
| 1000 to 10000 | – | CNC(=O)Nc1cnn2c(NC)cc(-c3c[nH]c4ncccc34)nc12 [Compound 88, 1-methyl-3-(7-(methylamino)-5-(1H-pyrrolo[2,3-b]pyridin-3-yl)pyrazolo[1,5-a]pyrimidin-3-yl)urea] |
| < 1000 | – | C#CCNC(=O)Nc1cnn2c(NC)cc(Nc3cc(F)cc4c3OCCO4)nc12 [Compound 111, 1-(5-((7-fluoro-2,3-dihydrobenzo[b][1,4]dioxin-5-yl)amino)-7-(methylamino)pyrazolo[1,5-a]pyrimidin-3-yl)-3-(prop-2-yn-1-yl)urea] |
| 1000 to 10000 | – | CNC(=O)Nc1cnn2c(NC)cc(NC(=O)c3ccccc3)nc12 [Compound 167, N-(7-(methylamino)-3-(3-methylureido)pyrazolo[1,5-a]pyrimidin-5-yl)benzamide] |
| < 1000 | – | CNc1cc(Nc2cccc3cccnc23)nc2c(NC(=O)NCC#N)cnn12 [Compound 127, 1-(cyanomethyl)-3-(7-(methylamino)-5-(quinolin-8-ylamino)pyrazolo[1,5-a]pyrimidin-3-yl)urea] |
| < 1000 | – | CNc1cc(Nc2cc(C#N)cc3c2OCCO3)nc2c(NC(=O)N[C@@H]3C[C@@H]3F)cnn12 [Compound 33, 1-(5-((7-cyano-2,3-dihydrobenzo[b][1,4]dioxin-5-yl)amino)-7-(methylamino)pyrazolo[1,5-a]pyrimidin-3-yl)-3-((1R,2S)-2-fluorocyclopropyl)urea] |
| 1000 to 10000 | – | CNc1cc(Nc2cc(F)cc3c2OC[C@H](CO)O3)nc2c(NC(=O)N[C@@H]3C[C@@H]3F)cnn12 [Compound 185, 1-(5-(((S)-7-fluoro-2-(hydroxymethyl)-2,3-dihydrobenzo[b][1,4]dioxin-5-yl)amino)-7-(methylamino)pyrazolo[1,5-a]pyrimidin-3-yl)-3-((1R,2S)-2-fluorocyclopropyl)urea] |
| – | 1000 to 10000 | CNc1cc(Nc2c(F)ccc3c2OCCO3)nc2c(NC(=O)NCC#N)cnn12 [Compound 136, 1-(cyanomethyl)-3-(5-((6-fluoro-2,3-dihydrobenzo[b][1,4]dioxin-5-yl)amino)-7-(methylamino)pyrazolo[1,5-a]pyrimidin-3-yl)urea] |
| < 1000 | – | [2H]C([2H])([2H])Nc1cc(-c2cn(C3CCOC3)c3ncccc23)nc2c(NC(=O)NC)cnn12 (centres unmarked) [Compound 75, 1-methyl-3-(7-((methyl-d3)amino)-5-(1-(tetrahydrofuran-3-yl)-1H-pyrrolo[2,3-b]pyridin-3-yl)pyrazolo[1,5-a]pyrimidin-3-yl)urea] |
| ≥ 10000 | – | CNC(=O)Nc1c(F)nn2c(NC)cc(Nc3cccc4c3OCCO4)nc12 [Compound 110, 1-(5-((2,3-dihydrobenzo[b][1,4]dioxin-5-yl)amino)-2-fluoro-7-(methylamino)pyrazolo[1,5-a]pyrimidin-3-yl)-3-methylurea] |
| < 1000 | – | CNC(=O)Nc1cnn2c(NC)cc(Nc3cccc4c3OCCO4)nc12 [Compound 7, 1-(5-((2,3-dihydrobenzo[b][1,4]dioxin-5-yl)amino)-7-(methylamino)pyrazolo[1,5-a]pyrimidin-3-yl)-3-methylurea] |
| < 1000 | – | CNc1cc(Nc2cccc3cccnc23)nc2c(NC(=O)N[C@@H]3C[C@@H]3F)cnn12 [Compound 39, 1-((1R,2S)-2-fluorocyclopropyl)-3-(7-(methylamino)-5-(quinolin-8-ylamino)pyrazolo[1,5-a]pyrimidin-3-yl)urea] |
| < 1000 | – | [2H]C([2H])([2H])Nc1cc(Nc2cc(F)cc3c2OCCO3)nc2c(NC(=O)N[C@@H]3C[C@@H]3F)cnn12 [Compound 49, 1-(5-((7-fluoro-2,3-dihydrobenzo[b][1,4]dioxin-5-yl)amino)-7-((methyl-d3)amino)pyrazolo[1,5-a]pyrimidin-3-yl)-3-((1R,2S)-2-fluorocyclopropyl)urea] |
| < 1000 | – | [2H]C1([2H])Oc2cc(F)cc(Nc3cc(NC)n4ncc(NC(=O)N[C@@H]5C[C@@H]5F)c4n3)c2OC1([2H])[2H] [Compound 182, 1-(5-((7-fluoro-2,3-dihydrobenzo[b][1,4]dioxin-5-yl-2,2,3,3-d4)amino)-7-(methylamino)pyrazolo[1,5-a]pyrimidin-3-yl)-3-((1R,2S)-2-fluorocyclopropyl)urea] |
| < 1000 | – | CNc1cc(Nc2cccc3c2OCCO3)nc2c(NC(=O)N[C@@H]3C[C@@H]3F)cnn12 [Compound 26, 1-(5-((2,3-dihydrobenzo[b][1,4]dioxin-5-yl)amino)-7-(methylamino)pyrazolo[1,5-a]pyrimidin-3-yl)-3-((1R,2S)-2-fluorocyclopropyl)urea] |
| < 1000 | – | CNc1cc(Nc2cccc3nccnc23)nc2c(NC(=O)N[C@@H]3C[C@@H]3F)cnn12 [Compound 44, 1-((1R,2S)-2-fluorocyclopropyl)-3-(7-(methylamino)-5-(quinoxalin-5-ylamino)pyrazolo[1,5-a]pyrimidin-3-yl)urea] |
| 1000 to 10000 | – | CNC(=O)Nc1cnn2c(NC)cc(Nc3cccn(-c4ccc(OC)nn4)c3=O)nc12 [Compound 17, 1-(5-((1-(6-methoxypyridazin-3-yl)-2-oxo-1,2-dihydropyridin-3-yl)amino)-7-(methylamino)pyrazolo[1,5-a]pyrimidin-3-yl)-3-methylurea] |
| 1000 to 10000 | – | CNc1cc(Nc2cccc3c2OCCO3)nc2c(NC(=O)N[C@H]3CC[C@H]3O)cnn12 [Compound 59, 1-(5-((2,3-dihydrobenzo[b][1,4]dioxin-5-yl)amino)-7-(methylamino)pyrazolo[1,5-a]pyrimidin-3-yl)-3-((1S,2R)-2-hydroxycyclobutyl)urea] |
